Legend:
[1] = system: 6 Hz psychomotor seizure model in mice; assay: 6 Hz psychomotor seizure model in mice; format: in vivo, mouse; settings: DMC
Excerpt: Adult male Carworth Farms (CF-1) mice (25-35 g) or young male Sprague-Dawley (SD) rats (100-150 g) were obtained from Charles River Laboratories Inc (Wilmington Mass. USA). CF1 mice were typically used for the 6 Hz psychomotor seizure model (6 Hz model described in the section below) but could also be used for the Maximal electroshock seizure (MES) model if performed in mice (Maximal electroshock seizure model described in the section below). SD rats were typically used for MES model but could also be used for 6 Hz psychomotor model if performed in rats. Animals were allowed free access to food and water, except during testing periods. After delivery from supplier lab to the in vivo pharmacology testing lab, animals were allowed sufficient time to acclimate to housing conditions prior to testing. Animals were housed in plastic cages in rooms with controlled humidity, ventilation, and lighting (12 hours lights on and 12 hours darkness). The animals were housed and fed in a manner consistent with the recommendations in the “Guide for Care and Use of Laboratory Animals” (National Research Council), and in accordance with guidelines set by an Institutional Animal Care and Use Committee (IACUC). Animal experiments were conducted in a manner consistent with Animal Research: Reporting of In Vivo Experiments (ARRIVE) guidelines (UK) and were approved by an IACUC. Test compounds or respective vehicle (placebo) were administered using an optimal fluid volume-to-body fluid ratio. Solutions or suspensions of test compounds, reference compounds or vehicles were administered to mice or rats in a volume of 0.01 mL/g body weight (mice) or 0.004 mL/g body weight (rats) by subcutaneous (s.c.) injection, intraperitoneal (i.p.) injection or by oral gavage (p.o.) unless otherwise indicated. Reference drug Levetiracetam or vehicle was administered by intraperitoneal (i.p.) injection.
Mice are given a topical anesthetic on the cornea of each eye prior to placement of corneal electrodes. 6 Hz psychomotor seizures were induced in mice (usually 8 animals per group) using electrical stimulation via corneal electrodes (6 Hz, 0.2 millisecond rectangular pulse, 3 second duration at 22 mA using a Grass 48 stimulator instrument as described in Barton M E et al 2001. Epilepsy Res 47:217-227). Prior to placement of corneal electrodes for electrical stimulation 0.5% tetracaine in saline (Sigma) drops were applied to each eye. Seizures and behaviors that arise from the electrical stimulus in the 6 Hz model include a minor clonic seizure phase followed by stereotyped automatistic behaviors including stun, forelimb clonus, twitching of the vibrissae and Straub-tail. […] Animals not presenting any of these behaviors were considered “protected” from seizures. This serves as a screen for in vivo pharmacological activity of test articles or reference anti-epilepsy drugs and defines anti-seizure activity as shown in several publications [Barton M E et al. 2001. Epilepsy Res. 47:217-227; Barton M E et al. 2003 Epilepsy Res. 56:17-26; Brown W C et al. 1953. J Pharmacol Exp Ther 107:273-283. Metcalf C S et al. 2017a. Epilepsia 58:484-493.; Metcalf C S et al. 2017c. Epilepsia 58:239-246.
Unless otherwise indicated pretreatment times of mice or rats were typically 0.5 hours for respective vehicle, Compounds 1, 3, 4, 6 or other compounds administered by subcutaneous or intraperitoneal route (unless other times indicated). A pretreatment time of 1 hour was used for Compounds 3, 4, 6 or other compounds administered by oral route unless other times indicated. Test compounds or respective vehicles were tested in some cases at other pretreatment times as indicated. A median effective dose (ED50) and 95% confidence interval (CI) were calculated using a Prism (Graphpad software). […]

[2] = system: AMPA receptor; assay: Whole cell patch-clamp recording of s-AMPA induced currents in pyramidal neurons of rat brain prefrontal cortex slices; format: cell-based; settings: rat brain slice PFC pyramidal neurons; n=4 to 5 experiments per concentration; read-out: IC50 of inhibition of peak amplitude responses to 20 μM s-AMPA
Description: (§1) Additionally biological activity of compounds as antagonists of AMPA receptors or NMDA receptors (also called ionotropic glutamate-gated ion channels) were conducted using ex vivo functional electrophysiological assays of pyramidal neurons in slices of rat brain prefrontal cortex. Effects of test compounds cf. reference compounds were studied by whole cell patch-clamp electrophysiology recordings of s-AMPA-induced currents or NMDA-induced currents, respectively, using rat brain slice prefrontal cortex (layer V) pyramidal neurons.
Male Sprague Dawley rats were supplied by Charles River Laboratories (Wilmington, Mass. USA) and were housed 4 per cage within a temperature (20.5-23.5° C.) and humidity (30-80%) controlled environment on a 12 hour light/dark cycle with access to food (Teklad Global Soy Protein, Cat. No. T.2920X10, Envigo, Indianapolis, Ind., USA) and water ad libitum. At 4-6 weeks of age rats were terminally anaesthetized using isofluorane [(1-chloro-2,2,2-trifluoroethyl difluoromethyl ether) supplied by Baxter Healthcare Corp, Deerfield, Ill., USA], and decapitated. The brain was removed and 300 μm thick coronal prefrontal cortex (PFC) or sagittal hippocampal slices were sectioned using a Vibratome microtome. After brain removal, and throughout slicing, the tissue was submerged in ice cold […] cerebrospinal fluid (aCSF). Once slices were cut, they were transferred to a beaker containing aCSF and left at room temperature for a minimum of 1 hour before commencing electrophysiological recordings. After this period, individual slices were transferred to a recording chamber continuously perfused with aCSF at a rate of 4-6 mL/min before commencing experiment protocols. aCSF composition (in mM): NaCl, 127; KCl, 1.9; KH2PO4, 1.2; CaCl2), 2.4; MgCl2, 1.3; NaHCO3, 26; D-glucose, 10; in water equilibrated with 95% Oxygen gas-5% CO2 gas (reagent suppliers listed below). Experiments investigating NMDA currents had aCSF supplemented with 10 μM glycine (reagents suppliers listed below). All experiments were conducted following protocols with the approval of an Institutional Animal Care and Use Committee (IACUC).
Whole cell patch-clamp recordings were performed from Layer V prefrontal cortex pyramidal neurons at room temperature using the ‘visualized’ version of the patch-clamp technique. […]
(§2) All test compound experiments were carried out in the voltage-clamp recording configuration of the whole cell patch-clamp technique and all recordings performed at a holding potential of −60 mV. Recordings were monitored on a Dell personal computer (PC) running Axon pClamp software (Molecular Devices, Sunnyvale, Calif., USA) and digitized at 10 kHz. […]

[3] = system: NMDA receptor; assay: Whole cell patch-clamp recording of NMDA induced currents in pyramidal neurons of rat brain prefrontal cortex slices; format: cell-based; settings: 30 μM; rat brain slice PFC pyramidal neurons; n=4
Description: as §1
Male Sprague Dawley rats were supplied by Charles River Laboratories (Wilmington, Mass. USA) and were housed 4 per cage within a temperature (20.5-23.5° C.) and humidity (30-80%) controlled environment on a 12 hour light/dark cycle with access to food (Teklad Global Soy Protein, Cat. No. T.2920X10, Envigo, Indianapolis, Ind., USA) and water ad libitum. […]
as §2

SMILES | 6 Hz Test Results (# mice protected from seizure/# mice tested) ([1]; 13 mg/kg p.o., 1 hour) | 6 Hz Test Results (# mice protected from seizure/# mice tested) ([1]; 13 mg/kg s.c., 0.5 hours) | IC50 [2] [nM] | inhibition of peak amplitude responses to 50 μM NMDA induced currents [3] [%+/−2%]
CCOC(=O)[C@@H]1C[C@H]2C[C@@](F)(CCc3nnn[nH]3)CC[C@H]2CN1 [Compound 3, ethyl (3S,4aS,6S,8aR)-6-fluoro-6-[2-(1H-1,2,3,4-tetrazol-5-yl)ethyl]-decahydroisoquinoline-3-carboxylate] | 5/8 | 8/8 | – | –
CCC(CC)COC(=O)[C@@H]1C[C@H]2C[C@@](F)(CCc3nnn[nH]3)CC[C@H]2CN1 [Compound 4, 2-ethylbutyl (3S,4aS,6S,8aR)-6-fluoro-6-[2-(1H-1,2,3,4-tetrazol-5-yl)ethyl]-decahydroisoquinoline-3-carboxylate] | 6/7 | 8/8 | – | –
O=C(OC1CCCCC1)[C@@H]1C[C@H]2C[C@@](F)(CCc3nn[nH]n3)CC[C@H]2CN1 [Compound 6, cyclohexyl (3S,4aS,6S,8aR)-6-fluoro-6-[2-(1H-1,2,3,4-tetrazol-5-yl)ethyl]-decahydroisoquinoline-3-carboxylate] | 8/8 | – | – | –
O=C(O)[C@@H]1C[C@H]2C[C@@H](CCc3nn[nH]n3)CC[C@H]2CN1 [Tezampanel, reference compound] | – | – | 481 | 40
